Measurements taken from ChEMBL document CHEMBL1153382 (J Med Chem, 2009).
The source made the active and inactive calls. The calls are words filed in the database; no cut-off is given here.

Tests used:
[1] = molecular target: T1, 5-hydroxytryptamine receptor 2C (Homo sapiens, UniProt P28335); assay: Agonist activity at human 5HT2C receptor expressed in HEK293 cells assessed as calcium flux by FLIPR assay; assay type: functional, cell-based
T1 sequence (P28335 whole entry): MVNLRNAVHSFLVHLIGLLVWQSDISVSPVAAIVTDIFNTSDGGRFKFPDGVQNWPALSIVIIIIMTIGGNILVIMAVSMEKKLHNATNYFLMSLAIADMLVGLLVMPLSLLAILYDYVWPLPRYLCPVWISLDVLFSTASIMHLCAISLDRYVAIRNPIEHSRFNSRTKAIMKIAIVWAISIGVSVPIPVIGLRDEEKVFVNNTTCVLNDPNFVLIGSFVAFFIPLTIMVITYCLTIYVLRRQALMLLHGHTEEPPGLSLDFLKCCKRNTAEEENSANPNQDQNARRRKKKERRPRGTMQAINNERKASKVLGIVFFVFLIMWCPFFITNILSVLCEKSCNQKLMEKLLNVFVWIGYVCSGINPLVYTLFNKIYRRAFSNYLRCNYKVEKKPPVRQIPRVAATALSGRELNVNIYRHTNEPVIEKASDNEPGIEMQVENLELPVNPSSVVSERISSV

[2] = molecular target: T2, 5-hydroxytryptamine receptor 2A (Homo sapiens, UniProt P28223); assay: Agonist activity at human 5HT2A receptor expressed in HEK293 cells assessed as calcium flux by FLIPR assay; assay type: functional, cell-based
T2 sequence (P28223 whole entry): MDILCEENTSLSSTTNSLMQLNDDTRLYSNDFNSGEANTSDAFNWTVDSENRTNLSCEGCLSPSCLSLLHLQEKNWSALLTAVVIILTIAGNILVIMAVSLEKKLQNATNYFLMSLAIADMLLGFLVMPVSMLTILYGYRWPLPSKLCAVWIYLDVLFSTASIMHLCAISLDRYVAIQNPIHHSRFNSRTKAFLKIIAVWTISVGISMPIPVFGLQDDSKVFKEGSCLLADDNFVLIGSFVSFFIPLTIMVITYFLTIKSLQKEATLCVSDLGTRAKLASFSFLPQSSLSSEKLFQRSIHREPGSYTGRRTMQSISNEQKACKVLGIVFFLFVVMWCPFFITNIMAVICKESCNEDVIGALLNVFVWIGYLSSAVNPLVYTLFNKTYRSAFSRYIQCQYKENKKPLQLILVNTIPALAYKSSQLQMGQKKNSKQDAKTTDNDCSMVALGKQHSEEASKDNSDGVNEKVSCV

[3] = molecular target: T3, 5-hydroxytryptamine receptor 2B (Homo sapiens, UniProt P41595); assay: Agonist activity at human 5HT2B receptor expressed in HEK293 cells at 10 uM assessed as calcium flux by FLIPR assay relative to serotonin; assay type: functional, cell-based
T3 sequence (P41595 whole entry): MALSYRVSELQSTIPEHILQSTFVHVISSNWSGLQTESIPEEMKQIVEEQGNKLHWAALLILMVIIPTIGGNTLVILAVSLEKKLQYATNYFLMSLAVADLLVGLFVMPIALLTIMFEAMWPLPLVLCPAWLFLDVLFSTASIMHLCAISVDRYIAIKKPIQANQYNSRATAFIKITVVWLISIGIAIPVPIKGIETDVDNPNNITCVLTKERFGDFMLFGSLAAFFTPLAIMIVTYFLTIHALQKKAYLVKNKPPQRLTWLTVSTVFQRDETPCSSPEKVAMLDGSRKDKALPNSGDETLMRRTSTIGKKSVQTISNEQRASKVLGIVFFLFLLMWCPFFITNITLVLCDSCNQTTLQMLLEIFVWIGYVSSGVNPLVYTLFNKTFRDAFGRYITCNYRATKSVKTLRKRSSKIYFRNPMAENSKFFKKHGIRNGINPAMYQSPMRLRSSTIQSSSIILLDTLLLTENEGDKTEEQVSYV

[4] = molecular target: T2, 5-hydroxytryptamine receptor 2A; assay: Agonist activity at human 5HT2A receptor expressed in HEK293 cells at 10 uM assessed as calcium flux by FLIPR assay relative to serotonin; assay type: functional, cell-based
[5] = molecular target: T3, 5-hydroxytryptamine receptor 2B; assay: Agonist activity at human 5HT2B receptor expressed in HEK293 cells assessed as calcium flux by FLIPR assay; assay type: functional, cell-based
Homo sapiens = species on record: Homo sapiens; assay: Selectivity ratio of EC50 for human 5HT2B receptor to EC50 for human 5HT2C receptor
[6] = molecular target: T4, 5-hydroxytryptamine receptor 2C (Homo sapiens) (UniProt P28335); assay: Agonist activity at human 5HT2C receptor expressed in HEK293 cells at 10 uM assessed as calcium flux by FLIPR assay relative to serotonin; assay type: functional, cell-based
T4 sequence (whole entry): T1 sequence (P28335 whole entry)

[7] = molecular target: Serotonin 2 receptors; 5-HT2a & 5-HT2c (Homo sapiens) (UniProt P28223+P28335); assay: Selectivity ratio of EC50 for human 5HT2A receptor to EC50 for human 5HT2C receptor
Sequence of Serotonin 2 receptors; 5-HT2a & 5-HT2c (Homo sapiens) (P28223 whole entry, looked up, one chain of several): as the sequence (P28223 whole entry) above

| Structure (SMILES) | EC50 [1] [µM] | Activity [2] | Emax [3] [%] | Emax [4] [%] | Activity [5] | EC50 [5] [µM] | Ratio EC50 (Homo sapiens) | Emax [6] [%] | Ratio EC50 [7] | EC50 [2] [µM] |
| --- | --- | --- | --- | --- | --- | --- | --- | --- | --- | --- |
| c1cc2c3c(c1)c1c(n3CCNC2)CCCC1 | 0.261 | inactive | < 12 | < 12 | inactive |  |  |  |  |  |
| NC[C@@H]1C[C@H]1c1ccccc1 [listing 1 of 2 here] | 0.909 |  |  |  |  | 3.09 |  |  |  |  |
| NC[C@@H]1C[C@H]1c1ccccc1Br [listing 1 of 2 here] | 0.078 |  |  |  |  | 0.224 |  |  |  |  |
| NC[C@@H]1C[C@H]1c1ccccc1 [listing 2 of 2 here] |  | inactive | 72 | < 12 |  |  | 3.4 | 102 |  |  |
| NC[C@@H]1C[C@H]1c1ccccc1Br [listing 2 of 2 here] |  | inactive | 96 | < 12 |  |  | 2.9 | 113 | > 128 |  |
| CNC[C@H]1C[C@@H]1c1ccccc1 (racemic) |  | inactive | 26 | < 12 |  |  |  | 101 |  |  |
| NC[C@H]1C[C@H]1c1ccccc1 (racemic) |  | inactive | 20 | < 12 |  |  |  | 104 |  |  |
| c1ccc(CNC[C@H]2C[C@@H]2c2ccccc2)cc1 (racemic) |  | inactive | 10 | < 12 | inactive |  |  | 97 |  |  |
| N[C@@H]1C[C@H]1c1ccccc1.N[C@H]1C[C@@H]1c1ccccc1 (racemic) [TRANYLCYPROMINE] | 2.7 | inactive | 29 | < 12 |  | > 5 |  | 109 |  |  |
| NC[C@H]1C[C@@H]1c1cccc(NC(=O)c2ccccc2)c1 (relative stereo) | > 1 | inactive | < 12 | < 12 | inactive |  |  | 26 |  |  |
| CC(C)(O)C#Cc1cccc([C@H]2C[C@@H]2CN)c1 (relative stereo) | > 5 | inactive | < 12 | < 12 | inactive |  |  | 62 |  |  |
| NC[C@H]1C[C@@H]1c1ccc(C#CCCCCO)cc1 (relative stereo) | > 10 | inactive | < 12 | < 12 | inactive |  |  | 24 |  |  |
| NC[C@@H]1C[C@H]1c1ccccc1 (relative stereo) [listing 1 of 2 here] | 0.013 |  |  |  |  | 0.085 |  |  |  | 1.4 |
| COc1ccc([C@H]2C[C@@H]2CN)cc1 (relative stereo) |  | inactive | < 12 | < 12 | inactive |  |  | 86 |  |  |
| COc1cccc([C@H]2C[C@@H]2CN)c1 (relative stereo) |  |  | 96 | 90 |  |  | 4.8 | 97 | 39 |  |
| COc1ccccc1[C@H]1C[C@@H]1CN (relative stereo) |  |  | 83 | 61 |  |  | 7.7 | 93 | 84 |  |
| Cc1cc([C@H]2C[C@@H]2CN)ccc1F (relative stereo) |  |  | 83 | 73 |  |  | 0.83 | 91 | 39 |  |
| Cc1ccc(Cl)c([C@H]2C[C@@H]2CN)c1F (relative stereo) |  |  | 74 | 65 |  |  | 9.2 | 117 | 26 |  |
| Cc1ccc([C@H]2C[C@@H]2CN)c(Br)c1 (relative stereo) |  |  | 68 | 62 |  |  | 1.2 | 84 | 4.8 |  |
| Cc1ccc([C@H]2C[C@@H]2CN)cc1 (relative stereo) |  |  | 79 | 18 |  |  | 0.28 | 69 | 14 |  |
| Cc1ccc([C@H]2C[C@@H]2CN)cc1C (relative stereo) |  |  | 78 | 40 |  |  | 0.33 | 97 | 68 |  |
| Cc1cccc(Cl)c1[C@H]1C[C@@H]1CN (relative stereo) |  |  | 90 | 56 |  |  | 2 | 97 | 207 |  |
| Cc1cccc([C@H]2C[C@@H]2CN)c1C (relative stereo) |  |  | 90 | 59 |  |  | 1.2 | 107 | 52 |  |

| Structure (SMILES) | EC50 [1] [µM] | Activity [2] | Emax [3] [%] | Emax [4] [%] | Activity [5] | EC50 [5] [µM] | Ratio EC50 (Homo sapiens) | Emax [6] [%] | Ratio EC50 [7] | EC50 [2] [µM] |
| --- | --- | --- | --- | --- | --- | --- | --- | --- | --- | --- |
| Cc1ccccc1[C@H]1C[C@@H]1CN (relative stereo) |  |  | 86 | 69 |  |  | 2.3 | 99 | 71 |  |
| NC[C@@H]1C[C@H]1c1ccccc1 (relative stereo) [listing 2 of 2 here] |  |  | 93 | 74 |  |  | 6 | 96 | 106 |  |
| NC[C@H]1C[C@@H]1c1c(F)cccc1F (relative stereo) |  |  | 58 | 38 |  |  | 39 | 85 | > 11 |  |
| NC[C@H]1C[C@@H]1c1ccc(Br)cc1 (relative stereo) |  |  | 51 | 26 |  |  | 20 | 87 | > 7 |  |
| NC[C@H]1C[C@@H]1c1ccc(C(F)(F)F)cc1 (relative stereo) |  | inactive | 56 | < 12 |  |  |  | 91 |  |  |
| NC[C@H]1C[C@@H]1c1ccc(Cl)cc1 (relative stereo) |  |  | 80 | 64 |  |  | 5.3 | 106 | 59 |  |
| NC[C@H]1C[C@@H]1c1ccc(Cl)cc1Cl (relative stereo) |  |  | 89 | 88 |  |  | 4.7 | 98 | 2.9 |  |
| NC[C@H]1C[C@@H]1c1ccc(Cl)cc1F (relative stereo) |  |  | 86 | 83 |  |  | 3.6 | 94 | 6.1 |  |
| NC[C@H]1C[C@@H]1c1ccc(F)c(F)c1 (relative stereo) |  |  | 96 | 96 |  |  | 3.2 | 103 | 64 |  |
| NC[C@H]1C[C@@H]1c1ccc(F)cc1F (relative stereo) |  |  | 88 | 85 |  |  | 9.9 | 98 | 13 |  |
| NC[C@H]1C[C@@H]1c1ccc2ccccc2c1 (relative stereo) |  | inactive | 21 | < 12 |  |  | 0.18 | 60 |  |  |
| NC[C@H]1C[C@@H]1c1cccc(Br)c1 (relative stereo) |  |  | 74 | 55 |  |  | 10 | 90 | 123 |  |
| NC[C@H]1C[C@@H]1c1cccc(C(F)(F)F)c1 (relative stereo) |  |  | 78 | 35 |  |  | 2.6 | 94 | 50 |  |
| NC[C@H]1C[C@@H]1c1cccc(Cl)c1 (relative stereo) |  |  | 78 | 42 |  |  | 5.9 | 98 | 189 |  |
| NC[C@H]1C[C@@H]1c1cccc(Cl)c1Cl (relative stereo) |  |  | 89 | 77 |  |  | 1.4 | 96 | 33 |  |
| NC[C@H]1C[C@@H]1c1cccc(F)c1 (relative stereo) |  |  | 87 | 71 |  |  | 1.1 | 92 | 131 |  |
| NC[C@H]1C[C@@H]1c1cccc(F)c1F (relative stereo) |  |  | 93 | 45 |  |  | 3.7 | 101 | > 50 |  |
| NC[C@H]1C[C@@H]1c1cccc(O)c1 (relative stereo) |  |  | 98 | 92 |  |  | 1.7 | 94 | 75 |  |
| NC[C@H]1C[C@@H]1c1ccccc1C(F)(F)F (relative stereo) |  | inactive | 102 | < 12 |  |  | 7.2 | 101 |  |  |
| NC[C@H]1C[C@@H]1c1ccccc1Cl (relative stereo) |  |  | 82 | 54 |  |  | 5.8 | 94 | 31 |  |
| NC[C@H]1C[C@@H]1c1ccccc1F (relative stereo) |  |  | 65 | 52 |  |  | 2.1 | 91 | 20 |  |
| NC[C@H]1C[C@@H]1c1ccccc1O (relative stereo) |  |  | 74 | 81 |  |  | 3.1 | 94 | 3.2 |  |
